Here are results for 2 molecules from paper PMC2364878, “Insecticidal Effects of Organotin(IV) Compounds on Plutella Xylostella (L.) Larvae. II. Inhibitory Potencies Against Acetylcholinesterase and Evidence for Synergism in Tests With Bacillus Thuringiensis(BER.) and Malathion” (Metal-Based Drugs, 1994).

Like-named read-outs stand apart in the source and are kept apart here.

Assay [1] has as its system T1, acetylcholinesterase (AChE), S-strain DBM larvae.
T1 construct: gene ace1; native, 1,500 g supernatant of whole 4th instar larva homogenate, not purified
In words: Ellman colorimetric assay, […] nm, linear regression. The note with it: acetylthiocholine iodide 0.5 mM, DTNB 0.3 mM, 0.1 M phosphate pH 7.0, 6 min, read-out: I50. Format: biochemical, Plutella xylostella. (Ellman's reagent forms a yellow product with free thiols.)

Assay [2] has as its system T2, acetylcholinesterase (AChE), R-strain DBM larvae.
T2 construct: gene ace1; native, 1,500 g supernatant of whole 4th instar larva homogenate, not purified
As to the kind of experiment: Ellman colorimetric assay, […] nm, linear regression. Format: biochemical, Plutella xylostella. The note with it: acetylthiocholine iodide 0.5 mM, DTNB 0.3 mM, 0.1 M phosphate pH 7.0, 6 min; above tested range (10^-3 to 10^-8 M); technical grade 90% a.i.; read-out: I50.

For the molecule `CCOC(=O)CC(SP(=S)(OC)OC)C(=O)OCC` (stereo not drawn) [Malathion], the IC50 in assay [1] (above tested range (10^-3 to 10^-8 M), technical grade 84% a.i.) was determined as 33200 µM.

As to `CNC(=O)ON=C(C)SC` [Methomyl], the IC50 stood at 2360 µM in assay [2] and 351 µM in assay [1] (technical grade 90% a.i.).
